Where a name gives a salt, the structure may show the parent alone.
Columns and labels:
[1] = test system: Interleukin-2 (IL-2) production on spleen cells in the MLR; test: Measurement of interleukin-2 production in MLR (mixed lymphocyte reaction); assay type: cell-based, mice; conditions: 48 h culture, ELISA
Description: Measurement of Interleukin-2 Production in MLR (Mixed Lymphocyte Reaction)
Measurement of interleukin-2 production in MLR was performed according to the described procedure (Gaveriaux-Ruff et al., J. Pharmacol. Exper. Ther. 298, 1193, 2001).
Splenocytes from mice were cultured with allogeneic stimulators (mitomycin treated BALB/c spleen cells).

calcineurin = calcineurin (Homo sapiens, UniProt Q08209); test: Calcineurin inhibition assay; assay type: biochemical; conditions: compound at a concentration of 20 μM
calcineurin, sequence (P63098 2-170, other chains not shown): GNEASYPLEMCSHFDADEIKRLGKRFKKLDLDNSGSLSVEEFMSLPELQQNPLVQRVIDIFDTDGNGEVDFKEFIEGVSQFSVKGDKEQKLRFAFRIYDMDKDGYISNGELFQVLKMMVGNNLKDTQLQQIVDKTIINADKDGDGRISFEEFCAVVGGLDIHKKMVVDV
Description: Calcineurin Inhibition Assays
Calcineurin inhibition assay was performed according to a described procedure (R. Baumgrass et al., J. Biol. Chem. 276, 47914, 2001).
Calcineurin inhibition was measured in a concentration range of 1-50 μM of the test compound at optimal Ca^2+ and calmoduline concentrations. The calcineurin/compound mixtures were equilibrated in the assay buffer (40 mM Tris-HCl, pH 7.5, 100 mM NaCl, 6 mM MgCl2, 0.5 mM ditiothreitol, 1 mM CaCl2, 0.1 mg/ml bovine serum albumin) at 22° C. for 30 min. Calcineurin activity was referenced to the assay lacking the test compounds. The data were computed with the SigmaPlot program.

| Structure (SMILES) | IL-2 ([1]; 10 μM compound) | Calcineurin activity (% of control) (calcineurin) | further results |
| --- | --- | --- | --- |
| CCOC12Cc3c([nH]c4ccccc34)C3(C)Oc4c(O)ccc5c4C31CCN(CC1CC1)C2C5 (stereo not drawn) [HS 378, 17-(Cyclopropylmethyl)-6,7-dehydro-4,5α-epoxy-14ethoxy-3-hydroxy-5-methyl-6,7-2′,3′-indolomorphinan Hydrochloride] | 31 ± 3 pg/mL | – | IL-2 ([1]; 2 μM compound): 49 ± 7 pg/mL; IL-2 ([1]; 20 μM compound): 22 ± 2 pg/mL |
| Cl.Oc1ccc2c3c1OC1c4[nH]c5ccccc5c4CC4(OCc5ccccc5-c5ccccc5)C(C2)N(CC2CC2)CCC314 (stereo not drawn) [HS 882, 17-(Cyclopropylmethyl)-6,7-didehydro-4,5α-epoxy-14β-[(2-phenylbenzyl)oxy]indolo[2′,3′:6,7]morphinan-3-ol Hydrochloride] | – | 49 % of control | – |
| CC(C)(C)c1ccc(COC23Cc4c([nH]c5ccccc45)C4Oc5c(O)ccc6c5C42CCN(CC2CC2)C3C6)cc1.Cl (stereo not drawn) [HS 884, 14β-[(4-tert.-Butylbenzyl)oxy]-17-(cyclopropylmethyl)-6,7-didehydro-4,5α-epoxyindolo[2′,3′:6,7]morphinan-3-ol Hydrochloride] | – | 65 % of control | – |
| Oc1ccc2c3c1OC1c4[nH]c5ccccc5c4CC4(OCCCc5ccccc5)C(C2)N(CC2CC2)CCC314 (stereo not drawn) [HS 894, 17-(Cyclopropylmethyl)-6,7-didehydro-4,5α-epoxy-14β-[(3-phenylpropyl)oxy]indolo[2′,3′:6,7]morphinan-3-ol] | – | 30 % of control | – |
| Oc1ccc2c3c1O[C@H]1c4[nH]c5ccccc5c4C[C@@]4(O)[C@@H](C2)N(CC2CC2)CC[C@]314 [Naltrindole, reference compound] | 29 ± 6 pg/mL | – | IL-2 ([1]; 3 μM compound): 66 ± 18 pg/mL; IL-2 ([1]; 30 μM compound): 19 ± 5 pg/mL |

— patent US20070167474A1, “Use of opioid receptor antagonist compounds for the prevention and/or treatment of diseases associated with the target calcineurin” (priority 2004, published 2007)
